Results from US10882012B2, “Process for producing a nano resveratrol microemulsion system” (priority 2018, dated 2021).

Assay: Water solubility / water-dispersing ability
Type: physicochemical
Conditions: dispersed in water, bottle A versus bottle B, visual

Compound: Oc1ccc(C=Cc2cc(O)cc(O)c2)cc1 [known 99% resveratrol, resveratrol]
- Water-dispersing ability (FIG. 1): insoluble in water
